From patent US20260297060A1, “COMPOUNDS FOR THE DEGRADATION OF MUTANT BRAF” (C4 THERAPEUTICS, INC., priority 2023, published 2026)

Experiments:
[1] = test system: A375 human melanoma xenografts; assay: In vivo therapeutic efficacy in A375 human melanoma xenografts (tumor volume, T/C, TGI), Example 14; set-up: species or system human tumor in female BALB/c nude mice; details: for Tumor volume: 100 mg/kg p.o. QD x 21 days
Description: Agents were tested in the A375 human melanoma xenografts. Compound 26 and Compound 141 were administered to BALB/c nude mice bearing A375 tumors from PG-DO and dosed via PO twice a day (BID) or third a day (TIP) or dosed P daily (QD) from PG-D. Dabrafenib was administered to BALB/c nude mice bearing A375 tumors from PG-D1 and dosed via P daily (QD). Compound 26 was dosed at 1.5 mg/kg (QD), 2 mg/kg (TID), 3 mg/kg (BID), 6 mg/kg (QD) and 10 mg/kg (BID) for 21 days. Compound 141 was dosed at 0.75 mg/kg (BID), 1 mg/kg (TID), 1.5 mg/kg (BID), 3 mg/kg (QD) and 5 mg/kg (BID) for 21 days. Dabrafenib was dosed at 100 mg/kg for 21 days. This study was non-GLP.
One hundred and thirty-eight female BALB/c nude Mus Musculus mice procured from Shanghai Lingchang Biological Science and Technology Co., LTD between the ages of six to eight weeks and with body weight between eighteen and twenty-two grams were used for the study. A spare mouse was also procured.
(§1) The A375 tumor cells were maintained in vitro in DMEM medium supplemented with 10% fetal bovine serum and 1% Penicillin-Streptomycin at 37° C. in an atmosphere of 5% CO2 in air. The tumor cells were routinely sub-cultured twice weekly. The cells growing in an exponential growth phase were harvested and counted for tumor inoculation.
Each mouse was inoculated subcutaneously at the right flank with A375 cells (5×10^6) in 0.2 mL of PBS supplemented with Matrigel (PBS: Matrigel=1:1) for tumor development. Animals were grouped for efficacy study on day 15 after tumor inoculation when the average tumor volume reached 220 mm^3. The test articles administration and the animal numbers in each group are shown in the above experimental Table 75.
At the time of routine monitoring, the animals were checked daily for any effects of tumor growth and treatments on normal behavior such as mobility, food and water consumption (by looking only), body weight gain/loss (body weights were measured twice weekly), eye/hair matting and any other abnormal effect as stated in the protocol. Death and observed clinical signs were recorded on the basis of the numbers of animals within each subset.
(§2) Prior to the onset of drug treatment, mice were measured for tumor size in two dimensions using a caliper, and the tumor volume (mm^3) was calculated using formula V=0.5 a×b^2 where a and b are the long and short diameters of the tumor in mm, respectively. Mice were randomized into different treatment groups based on the tumor volume.
(§3) The major endpoint was to see if the tumor growth could be delayed or mice could be cured. The tumor size was then used for calculations of T/C value. The T/C value (in percent) is an indication of antitumor effectiveness; T and C are the mean volumes of the treated and control groups, respectively on specified day.
(§4) TGI was calculated for each group using the formula: TGI (%)=[1−(Ti−T0)/(Ci−C0)]×100; Ti is the average tumor volume of a treatment group on a given day, T0 is the average tumor volume of the treatment group on the day of treatment start, Ci is the average tumor volume of the vehicle control group on the same day with Ti, and C0 is the average tumor volume of the vehicle group on the day of treatment start.
A one-way ANOVA followed by Dunnett's multiple comparison test was performed to compare tumor volume among vehicle group (Group 1) and treatment groups (Group 2-Group 12). All data were analyzed using GraphPad Prism, ns indicates p>0.05, * indicates p<0.05, ** indicates p<0.01, *** indicates p<0.001 and **** indicates p<0.0001.
Tumor growth inhibition of Compound 26, Compound 141 and dabrafenib in the treatment of female BALB/c nude mice bearing A375 xenografts was calculated based on tumor volume measured on […]. TGI and T/C were calculated respectively and the data are detailed in Table 82.

[2] = test system: A375 human melanoma xenografts; assay: Example 9 efficacy study Part I in A375 human melanoma xenografts (tumor volume, T/C, TGI); assay type: in vivo, BALB/c nude mice; details: 100 mg/kg, p.o., QD × 14 days
Description: For efficacy study Part I, agents were tested in the A375 human melanoma xenografts. Compound 218 and Compound 157 were administered to BALB/c nude mice bearing A375 xenografts from day 0 and dosed twice a day (BID) for 14 days. Compound 218 and Compound 157 were dosed at 10 mg/kg via p.o.. Dabrafenib was administered from day 1 daily (QD) for 14 days and dosed at 100 mg/kg via p.o..
as §1, with “[…]” for “10%”, “subcultured” for “sub-cultured”
Each mouse was inoculated subcutaneously at the right flank with A375 cells (5×10^6) in 0.2 mL of PBS supplemented with Matrigel (PBS: Matrigel=1:1) for tumor development. Animals were grouped for the treatment when the average tumor volume reached 243 mm^3 for efficacy study part I and 413 mm^3 for the PK and PD study part I on day 15, and 271 mm^3 for efficacy part II and 443 mm^3 for the PK and PD part II on day 18, and 463 mm^3 for the PK and PD study part III on day 21. The test articles administration and the animal numbers in each group are shown in the above experimental tables.
as §2, §3
as §4, with “day, To” for “day, T0”

[3] = 100 mg/kg, p.o., QD × 21 days, PG-D21

## CC(C)(C)c1nc(-c2cccc(NS(=O)(=O)c3c(F)cccc3F)c2F)c(-c2ccnc(N)n2)s1 [Dabrafenib, dabrafenib, reference compound]
[1]; day 0, mean ± SEM
  Tumor volume: 220 ± 15 mm^3
[1]; day 4, mean ± SEM
  Tumor volume: 367 ± 24 mm^3
[1]; day 7, mean ± SEM
  Tumor volume: 421 ± 28 mm^3
[1]; day 11, mean ± SEM
  Tumor volume: 560 ± 38 mm^3
[1]; day 14, mean ± SEM
  Tumor volume: 756 ± 54 mm^3
[1]; day 18, mean ± SEM
  Tumor volume: 1031 ± 79 mm^3
[1]; day 21, mean ± SEM
  Tumor volume: 1095 ± 86 mm^3
[1]; day 25 (dosing-free regrowth), mean ± SEM
  Tumor volume: 1007 ± 137 mm^3
[1]; day 28 (dosing-free regrowth), mean ± SEM
  Tumor volume: 1366 ± 209 mm^3
[1]; day 32 (dosing-free regrowth), mean ± SEM
  Tumor volume: 1679 ± 323 mm^3
[1]; day 35 (dosing-free regrowth), mean ± SEM
  Tumor volume: 1711 ± 245 mm^3
[1]; day 39 (dosing-free regrowth), mean ± SEM
  Tumor volume: 2116 ± 279 mm^3
[1]; day 42 (dosing-free regrowth), mean ± SEM
  Tumor volume: 2634 ± 337 mm^3
[1]; day 46 (dosing-free regrowth), mean ± SEM
  Tumor volume: 2535 ± 321 mm^3
[1]; day 49 (dosing-free regrowth), mean ± SEM
  Tumor volume: 3163 ± 478 mm^3
[1]; day 53 (dosing-free regrowth)
  Tumor volume: 3001 mm^3
[1]; 100 mg/kg p.o. QD × 21 days
  Tumor Size on PG-D21 (Mean ± SEM): 1095 ± 86 mm^3
[1]; [3]
  T/C: 58.1%
  TGI: 47.4%
[2]; Day 0, Mean ± SEM
  Tumor Volume Trace Over Time: 243 ± 4 mm^3
[2]; Day 3, Mean ± SEM
  Tumor Volume Trace Over Time: 370 ± 17 mm^3
[2]; Day 7, Mean ± SEM
  Tumor Volume Trace Over Time: 445 ± 13 mm^3
[2]; Day 10, Mean ± SEM
  Tumor Volume Trace Over Time: 475 ± 23 mm^3
[2]; Day 14, Mean ± SEM
  Tumor Volume Trace Over Time: 521 ± 31 mm^3
[2]; Mean ± SEM
  Tumor Size on PG-D14: 521 ± 31 mm^3
[2]; PG-D14
  TGI (Tumor Growth Inhibition): 74.65%
[2]; PG-D14, treated/control average tumor volume
  T/C: 38.87%
